According to patent publication US4980377A, “1-(aminophenyl)-2-aminopropanone derivatives” (Laboratoire L. Lafon, priority 1984, dated 1990):
Entries after “also recorded” stand apart in the source; their conditions may differ.

Columns and labels:
mice [1] = assay: Behavioral despair; assay type: in vivo, mouse; details: forcibly immersed mice, i.p.
Excerpt: Half an hour after they have received CRL 41 153, groups of 6 mice are placed in a beaker filled with water to a height of 6 cm. The total period of immobility between the 2nd and 6th minutes following immersion is noted.

[2] = test system: gravid White New Zealand female rabbits; assay: Teratogenicity in gravid White New Zealand rabbits; assay type: in vivo, rabbit; details: dose 0 mg/kg [sic]
In short: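 Fetuses harvested by cesarean on gestation day 29 were scored for number and for any malformation (limb blockade, anury, tail or skull defects, exencephaly).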

mice [3] = assay: Interaction with apomorphine in mice; assay type: in vivo, mouse; details: i.p.
Experimental: Groups of 6 mice receive CRL 41 153 0.5 hour before the subcutaneous injection of 1 or 16 mg/kg of apomorphine.

[4] = pH of solutions in distilled water; assay type: physicochemical
Experimental: The neuropsychopharmacological study was undertaken according to the procedures described above for CRL 41 153, CRL 41 213 being adminstered intraperitoneally, in solution in distilled water, in a volume of 20 ml/kg to male mice and a volume of 5 ml/kg to male rats, and the pH of the injected solution varying with the concentration of CRL 41 213 according to the data given in Table II below.

CNS = assay: Neuropsychopharmacological profile as a whole; assay type: in vivo, mice and rats
Experimental: (§1) In the neuropsychopharmacological study which follows, a solution of CRL 41 153 in distilled water (pH 1.5) was administered intraperitoneally in a volume of 20 ml/kg to male mice and 5 ml/kg to male rats.

mice [5] = assay: Interaction with oxotremorine; assay type: in vivo, mouse; details: i.p.
Experimental: CRL 41 153 is administered to groups of 6 mice 0.5 hour before the intraperitoneal injection of 0.5 mg/kg of oxotremorine.

rats [6] = assay: Overall behavior and reactivities in rats; assay type: in vivo, rat; details: i.p.
Experimental: as §1
(§2) Groups of three animals are observed before and then 0.25 hour, 0.50 hour, 1 hour, 2 hours, 3 hours and 24 hours after the administration of CRL 41 153.

mice [7] = assay: Motility reduced by habituation to the enclosure; assay type: in vivo, mouse; details: i.p.
Experimental: After they have stayed In the actimeters for 18 hours, (he mice (6 per dose, 12 control animals) receive CRL 41 153. They are immediately returned to their respective enclosures and, half an hour later, their motility is recorded for 30 minutes.

mice [8] = assay: Interaction with reserpine; assay type: in vivo, mouse; details: i.p.
Experimental: Four hours after the intraperitoneal injection of 2.5 mg/kg of reserpine, groups of 6 mice receive CRL 41 153.

mice [9] = assay: Four plate test, traction and electric shock; assay type: in vivo, mouse; details: i.p.
Experimental: The test is performed on groups of 10 mice 30 minutes after the administration of CRL 41 153.

mice [10] = assay: Interaction with barbital; assay type: in vivo, mouse; details: i.p., barbital 220 mg/kg
Experimental: Half an hour after the administration of CRL 41 153, groups of 10 mice receive an intraperitoneal injection of barbital (220 mg/kg).

rats [11] = assay: Interaction with amphetamine; assay type: in vivo, rat; details: i.p.
Experimental: Amphetamine (2 mg/kg) is injected intraperitoneally into groups of 6 rats 30 minutes after the administration of CRL 41 153. […] 4 mg/kg and 16 mg/kg, CRL 41 153 potentiates the intensity and duration of the stereotypies induced by amphetamine.

mice [12] = assay: Motility reduced by hypoxic aggression; assay type: in vivo, mouse; details: i.p.
Experimental: Half an hour after they have received CRL 41 153, the mice (10 per dose, 20 control animals) are subjected to acute hypobaric anoxia [pressure reduction of 600 mm Hg (i.e. about 8×10^4 Pa) in 90 seconds; release of vacuum in 45 seconds] and are then placed in an actimeter, where their motility is recorded for 10 minutes.

rats [13] = assay: Interaction with apomorphine in rats; assay type: in vivo, rat; details: i.p.
Experimental: CRL 41 153 is administered to groups of 6 rats 0.5 hour before the subcutaneous injection of 0.5 mg/kg of apomorphine.

mice [14] = assay: Overall behavior and reactivities in mice; assay type: in vivo, mouse; details: i.p.
Experimental: as §1, §2

mice [15] = assay: Intergroup aggressiveness; assay type: in vivo, mouse; details: i.p.
Experimental: After they have stayed for 3 weeks in the two halves of a cage divided by an opaque partition, groups of 3 mice receive CRL 41 153. Half an hour later, the two groups from the same cage are brought together by removal of the partition, and the number of fights which occur in 10 minutes is noted.

mice [16] = assay: Spontaneous motility; assay type: in vivo, mouse; details: i.p.
Experimental: 0.5 hour after they have received CRL 41 153, the mice (6 per dose, 12 control animals) are placed in an actimeter, where their motility is recorded for 30 minutes.

rats [17] = assay: Investigation of stereotype movements; assay type: in vivo, rat; details: i.p., compared with amphetamine 2 mg/kg
Experimental: Immediately after the intraperitoneal administration of CRL 41 194 or amphetamine, groups of 6 rats are placed in Plexiglass boxes (20×10×10 cm). The stereotype movements are graded from 0 to 3 every 10 minutes until they wear off.
Groups of 6 rats receive an intraperitoneal injection of CRL 41 213, distilled water or amphetamine immediately before being placed in small cages, where their stereotype behavior is graded every 10 minutes until the effect wears off.

mice [18] = assay: Asphyxiant anoxia (gallamine triiodoethylate); assay type: in vivo, mouse; details: i.p., curarizing agent
Experimental: Groups of 10 mice receive CRL 41 153 half an hour before the intraperitoneal administration of 32 mg/kg of gallamine triiodoethylate (reference curarizing agent).

male mice = assay: Acute toxicity by intraperitoneal administration; assay type: in vivo, mouse; details: i.p.
Experimental: as §1

Q: For `CCCNC(C)C(=O)c1ccc(N)cc1` (centres unmarked) [CRL 41 213], which “Period of immobility due to despair” value (mice [1]) is on record?
A: as from a dose of 0.5 mg/kg, CRL 41 213 distinctly reduces the period of immobility; also recorded: Total antagonism is obtained at doses of 4 mg/kg, 16 mg/kg and 64 mg/kg

Q: What about the “Affected foetuses, number” value [2] of the same molecule?
A: 1

Q: And the “Total foetuses (live)” value [2]?
A: 84

Q: What about the “Affected foetuses, %” value ([2]; normal limit 1.5%) of the same molecule?
A: 1.19%

Q: What about the “Effect on hypothermia induced by apomorphine” value (mice [3]) of the same molecule?
A: at doses of 1 mg/kg, 4 mg/kg, 16 mg/kg and 64 mg/kg, CRL 41 213 strongly opposes the hypothermia induced by apomorphine in mice

Q: And the “Effect on righting behavior and stereotypies induced by apomorphine” value (mice [3])?
A: At the strongest dose studied (64 mg/kg), CRL 41 213 moderately reduces the righting behavior without modifying the stereotypies induced by apomorphine

Q: And the pH ([4]; 0.2 g/liter in distilled water)?
A: 4.0

Q: And the pH ([4]; 0.4 g/liter in distilled water)?
A: 3.5

Q: What about the pH ([4]; 0.8 g/liter in distilled water) of the same molecule?
A: 3.0

Q: And the pH ([4]; 1.6 g/liter in distilled water)?
A: 2.5

Q: And the pH ([4]; 3.2 g/liter in distilled water)?
A: 2.0

Q: What about the pH ([4]; 25 g/liter in distilled water) of the same molecule?
A: 1.5

Q: What about the pH ([4]; 50 g/liter in distilled water) of the same molecule?
A: 1.0

Q: What about the pH ([4]; ≤0.1 g/liter in distilled water) of the same molecule?
A: 5.0

Q: What about the “Anticonvulsant effects (overall)” value (CNS; conclusion of the tests) of the same molecule?
A: at high but non-toxic doses, CRL 41 213 causes the appearance of clonic convulsions but opposes the convulsant effects of electric shock

Q: What about the “Antidepressant effects (overall)” value (CNS; conclusion of the tests) of the same molecule?
A: possessing antidepressant, stimulant and arousing properties

Q: And the “Stimulant effects (overall)” value (CNS; conclusion of the tests)?
A: possessing antidepressant, stimulant and arousing properties

Q: And the “α-adrenergic stimulant effects (overall)” value (CNS; conclusion of the tests)?
A: effects reflecting peripheral α-adrenergic stimulation

Q: What about the “Peripheral α-adrenergic signs (mydriasis, salivation, lacrimation, exophthalmos)” value (CNS; species and dose not stated) of the same molecule?
A: mydriasis; also recorded: presence of salivation, lacrimation and exophthalmos

Q: And the “Effect on hypothermic action of oxotremorine” value (mice [5])?
A: As from a dose of 4 mg/kg, CRL 41 213 opposes the hypothermic action of oxotremorine; also recorded: At the weakest dose studied (1 mg/kg), this effect is scarcely detectable

Q: And the “Effect on trembling induced by oxotremorine” value (mice [5])?
A: At the strongest doses (16 and 64 mg/kg), CRL 41 213 reduces the intensity of the trembling

Q: What about the “Action on the peripheral cholinergic symptoms” value (mice [5]; oxotremorine) of the same molecule?
A: does not change the signs of peripheral cholinergic stimulation produced by oxotremorine

Q: What about the Observed symptoms (rats [6]; 0.5 mg/kg) of the same molecule?
A: mydriasis for 1 hour

Q: What about the Observed symptoms (rats [6]; 2 mg/kg) of the same molecule?
A: excitation with the presence of stereotypies; also recorded: an increase in the fear reaction and in the reactivity to touch and noise for 2 hours

Q: And the Observed symptoms (rats [6]; 8 mg/kg)?
A: excitation with the presence of stereotypies; also recorded: an increase in the fear reaction and in the reactivity to touch and noise for 3 hours; also recorded: mydriasis for more than 3 hours

Q: What about the Observed symptoms (rats [6]; 32 mg/kg) of the same molecule?
A: excitation with the presence of very intense stereotypies; also recorded: an increase in the fear reaction and in the reactivity to touch and noise for 3 hours; also recorded: exophthalmos from 0.5 hour to 3 hours; also recorded: mydriasis for 3 hours; also recorded: polypnea

Q: And the “Motor activity of mice accustomed to their enclosure” value (mice [7])?
A: at doses of 4 mg/kg, 16 mg/kg and 64 mg/kg, CRL 41 213 causes a resumption in the motor activity of mice accustomed to their enclosure

Q: And the “Effect on hypothermia induced by reserpine” value (mice [8])?
A: at doses of 1 mg/kg and 4 mg/kg, CRL 41 213 opposes the hypothermic action of reserpine; also recorded: at a weaker dose (0.25 mg/kg), no effect is detected

Q: And the “Effect on ptosis induced by reserpine” value (mice [8])?
A: at doses of 1 mg/kg and 4 mg/kg, CRL 41 213 opposes the hypothermic action of reserpine as well as the ptosis induced by reserpine; also recorded: at a weaker dose (0.25 mg/kg), no effect is detected

Q: What about the “Effect on convulsant effects of electric shock” value (mice [9]) of the same molecule?
A: opposes the convulsant effects of electric shock 116 to 64 mg/kg)

Q: And the “Motor incapacity (traction)” value (mice [9])?
A: causes motor incapacity (64 mg/kg)

Q: What about the “Number of punished passes in the four plate test” value (mice [9]) of the same molecule?
A: At doses of 1 mg/kg, 4 mg/kg and 16 mg/kg, CRL 41 213 causes an increase in the number of punished passes; also recorded: This increase is not present at the strongest dose used (64 mg/kg)

Q: And the “Duration of the sleep induced by barbital” value (mice [10])?
A: as from a dose of 0.5 mg/kg. CRL 41 213 reduces the duration of the sleep induced by barbital; also recorded: Total antagonism is obtained for doses equal to or greater than 4 mg/kg

Q: What about the “Effect on stereotypies induced by amphetamine” value (rats [11]) of the same molecule?
A: as from a dose of 2 mg/kg, CRL 41 213 potentiates the stereotypies induced by amphetamine

Q: What about the “Motor recovery of mice after hypobaric hypoxia” value (mice [12]) of the same molecule?
A: As from 1 mg/kg, CRL 41 213 causes a distinct improvement in the motor recovery

Q: And the “Effect on stereotypies induced by apomorphine” value (rats [13])?
A: as from a dose of 2 mg/kg, CRL 41 213 causes an increase in the index of the stereotypes induced by apomorphine; also recorded: This increase is large in terms of intensity and duration at doses of 8 mg/kg and 32 mg/kg

Q: And the Observed symptoms (mice [14]; 1 mg/kg)?
A: moderate sedation 0.5 hour after administration

Q: And the Observed symptoms (mice [14]; 4 mg/kg)?
A: moderate excitation 0.5 hour after administration; also recorded: piloerection for 0.25 hour

Q: And the Observed symptoms (mice [14]; 16 mg/kg)?
A: excitation for more than 3 hours with the presence of stereotypies for about 2 hours as from the 1st hour following administration; also recorded: an increase in the fear reaction, the reactivity to touch and the aggressiveness for more than 3 hour; also recorded: salivation, lacrimation and exophthalmos for 1 hour; also recorded: polypnea

Q: What about the Observed symptoms (mice [14]; 64 mg/kg) of the same molecule?
A: clonic convulsions for 0.5 hour; also recorded: excitation for more than 3 hours with the presence of stereotypies; also recorded: an increase in the fear reaction and the reactivity to touch from 2 hours to more than 3 hours; also recorded: mydriasis for more than 3 hours; also recorded: polypnea

Q: And the “Number of fights / intergroup aggressiveness” value (mice [15])?
A: does not modify the intergroup aggressiveness of mice

Q: What about the Spontaneous motor activity (mice [16]) of the same molecule?
A: At doses of 1 mg/kg, 4 mg/kg and 16 mg/kg, CRL 41 213 causes a substantial increase in the spontaneous motor activity of mice; also recorded: At the strongest dose studied (64 mg/kg), CRL 41 213 causes clonic convulsions and stereotypies

Q: And the Stereotype movements (rats [17])?
A: As from a dose of 2 mg/kg, CRL 41 213 causes the appearance of stereotype movements in rats, the intensity of which is substantially comparable to that obtained with 2 mg/kg of amphetamine; also recorded: Increasing the doses leads to an increase in the intensity and duration of these stereotypies

Q: What about the “Time taken for convulsions to occur” value (mice [18]) of the same molecule?
A: does not modify (he time taken for convulsions to occur

Q: And the “Time taken for death to occur” value (mice [18])?
A: at a dose of 64 mg/kg, it moderately increases the time taken for death to occur

Q: And the “LD0 (maximum non-lethal dose)” value (male mice)?
A: greater than or equal to 128 mg/kg

Q: And the LD100 (male mice)?
A: less than or equal to 256 mg/kg
